Key:
C. elegans = C. elegans nematode activity assay, 2-fold dilutions from 140 μM, visual evaluation at Day 4 (Example 3); assay type: in vivo, Caenorhabditis elegans
Protocol: The eggs were allowed to hatch, and the L1 larvae collected. See The Nematode Caenorhabditis elegans (1988) Cold Spring Harbor Laboratory Press. Using a Matrix Programmable Pipette, the L1s were distributed into 96-well tissue culture plates, 20 L1 in 50 μl NGM per well. Antibiotic/Antimyoticwas added to each well, and 1% by weight E. coli strain HB101. The subject anthelmintic compounds were stored at 5 mM in 100% DMSO. 0.7 μl of compounds 1-31 were added to the left-most column of wells to yield a final concentration of 70 μM in 1.4% DMSO, with 1.4% DMSO only as the control. The compounds were then subjected to 5 more 3-fold dilutions from left to right to yield 6 column concentrations of 70 μM, 23.3 μM, 7.8 μM, 2.6 μM, 0.9 μM, and 0.3 μM. Plates were stored in air-tight Rubbermaid plastic boxes at 20° C. The nematodes had cleared all control wells by day 4, and nematode viability was scored by visual examination under a 100× dissecting microsope on day 5. A visual viability scoring system was used as follows:
The C. elegans nematode activity assay for anthelmintic compounds 32-46 was similar to that described in Example 2 above, except for the following noted differences. The compound concentrations were adjusted to 140 μM and subjected to 2-fold dilutions to yield 140 μM, 70 μM, 35 μM, 17.5 μM, 8.8 μM, 4.4 μM, 2.2 μM, and 1.09 μM.

Meloidogyne incognita = conditions: cited from earlier work
Caenorhabditis elegans = test: C. elegans L1 nematicidal dose response in 96-well plates, 5 day visual score (Example 2; same procedure for Example 7, Table 3); assay type: in vivo; design: key to 5 Day Visual Score V1 / 5 Day Visual Score V2 / 5 Day Visual Score V3 / 5 Day Visual Score V4 / 5 Day Visual Score V6 / 5 Day Visual Score V5 / Initial HTS Run Visual Score / Follow-up HTS Run Visual Score: Dead: only stiff L1s (no movement); Dead (L4): worms are dead, but at a later larval stage; majority of worms are L1 (based on size) worms move when plate is tapped; majority of worms are L2 (based on size); majority of worms are L3 (based on size); majority of worms are L4 (based on size); AD: majority of worms are adult; #AD: 5 adult worms or less; B!: sterile (0-25 progeny); B: low broodsize (25-100 progeny); ˜B: moderate broodsize (100-250 progeny); <: reduced broodsize (250-500 progeny); OK: no effect (˜1000+ progeny); conditions: for 5 Day Visual Score V1: dilution V1, day 5; for 5 Day Visual Score V4: dilution V4, day 5; for 5 Day Visual Score V5: dilution V5, day 5; for 5 Day Visual Score V6: dilution V6, day 5
In short: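 L1 larvae, 20 per well in NGM with 1% E. coli HB101 and antibiotic/antimycotic, exposed to six 3-fold dilutions from 70 μM down to 0.3 μM (1.4% DMSO at top). Held at 20° C; viability scored visually under 100× dissecting microscope on day 5.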

| Compound | visual evaluation of viability (C. elegans; 8.8 μM) | Follow-up HTS Run % Run (Caenorhabditis elegans; Follow-up HTS run) [%] | Follow-up HTS Run mOD (Caenorhabditis elegans; Follow-up HTS run) [mOD] | Initial HTS Run % Run (Caenorhabditis elegans; Initial HTS run) [%] | Initial HTS Run mOD (Caenorhabditis elegans; Initial HTS run) [mOD] | 5 Day Visual Score V1 (Caenorhabditis elegans; dose response) | 5 Day Visual Score V4 (Caenorhabditis elegans; dose response) | 5 Day Visual Score V5 (Caenorhabditis elegans; dose response) | 5 Day Visual Score V6 (Caenorhabditis elegans; dose response) | also measured |
| --- | --- | --- | --- | --- | --- | --- | --- | --- | --- | --- |
| NCc1ccc(-c2ccccc2)cc1 [AKC-138] | B (low broodsize (25-100 progeny)) |  |  |  |  |  |  |  |  |  |
| CC[C@H](C)[C@H]1O[C@]2(CC(O)[C@@H]1C)C[C@@H]1C[C@@H](C/C=C(\C)[C@@H](OC3CC(OC)C(OC4CC(OC)C(O)C(C)O4)C(C)O3)[C@@H](C)/C=C/C=C3\CO[C@@H]4[C@H](O)C(C)=C[C@@H](C(=O)O1)[C@]34O)O2 (some centres unmarked) [Avermectin B2a] |  |  |  |  |  |  |  |  |  | activity against the root-knot nematode (Meloidogyne incognita): active |
| CCCCCCCCOc1ccc2nc(CCSC)[nH]c2c1 [AKC-144] | OK (no effect (˜1000+ progeny)) |  |  |  |  |  |  |  |  | visual evaluation of viability (C. elegans; 1.09 μM): OK (no effect (˜1000+ progeny)); visual evaluation of viability (C. elegans; 2.2 μM): OK (no effect (˜1000+ progeny)); visual evaluation of viability (C. elegans; 4.4 μM): OK (no effect (˜1000+ progeny)); visual evaluation of viability (C. elegans; 17.5 μM): ˜B (moderate broodsize (100-250 progeny)); visual evaluation of viability (C. elegans; 35 μM): B (low broodsize (25-100 progeny)); visual evaluation of viability (C. elegans; 70 μM): L4/AD/B |
| CCN(c1nc(N2CCN(c3c(C)cccc3C)CC2)ns1)C1CCCCC1 [compound 228] |  | 73 | 118 | 107 | 118 | Dead | OK (no effect (˜1000+ progeny)) | OK (no effect (˜1000+ progeny)) | OK (no effect (˜1000+ progeny)) | Follow-up HTS Run Visual Score (Caenorhabditis elegans; Follow-up HTS run): Dead/1L4/1AD; Initial HTS Run Visual Score (Caenorhabditis elegans; Initial HTS run): 1AD/B!; 5 Day Visual Score V2 (Caenorhabditis elegans; dose response, dilution V2, day 5): Dead; 5 Day Visual Score V3 (Caenorhabditis elegans; dose response, dilution V3, day 5): OK (no effect (˜1000+ progeny)) |
| CCCCCCCCCCCCCCCCCCN(C)c1nc(NCCc2ccc(Oc3ccccc3)cc2)ns1 [compound 270] |  | 113 | 182 | 149 | 164 | Dead | OK (no effect (˜1000+ progeny)) | OK (no effect (˜1000+ progeny)) | OK (no effect (˜1000+ progeny)) |  |

From patent US20020002171A1, “Materials and methods for killing nematodes and nematode eggs” (priority 2000, published 2002)
